The values below come from article PMC2989405 (Cell, 2009).

SMILES strings stand for the structures.

One assay concerns the target T1, rat MrgprA (Rattus norvegicus, UniProt Q7TN49).
T1 sequence (Q7TN49 1-304): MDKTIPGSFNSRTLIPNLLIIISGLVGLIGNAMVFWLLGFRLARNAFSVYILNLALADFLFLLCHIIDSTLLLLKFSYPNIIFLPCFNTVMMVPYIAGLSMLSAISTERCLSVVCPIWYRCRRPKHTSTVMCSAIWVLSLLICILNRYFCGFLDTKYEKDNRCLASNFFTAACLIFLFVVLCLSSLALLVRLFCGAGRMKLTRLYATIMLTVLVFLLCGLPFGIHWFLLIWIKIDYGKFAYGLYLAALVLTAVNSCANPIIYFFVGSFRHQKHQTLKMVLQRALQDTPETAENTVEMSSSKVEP
Kind of assay: response of electroporated Mrgpr-deficient mouse DRG neurons. It counts as cell-based. To be noted: agonist.

The target in another assay is T2, MrgprA3 (Mus musculus, UniProt Q91WW3).
T2 sequence (Q91WW3 1-302): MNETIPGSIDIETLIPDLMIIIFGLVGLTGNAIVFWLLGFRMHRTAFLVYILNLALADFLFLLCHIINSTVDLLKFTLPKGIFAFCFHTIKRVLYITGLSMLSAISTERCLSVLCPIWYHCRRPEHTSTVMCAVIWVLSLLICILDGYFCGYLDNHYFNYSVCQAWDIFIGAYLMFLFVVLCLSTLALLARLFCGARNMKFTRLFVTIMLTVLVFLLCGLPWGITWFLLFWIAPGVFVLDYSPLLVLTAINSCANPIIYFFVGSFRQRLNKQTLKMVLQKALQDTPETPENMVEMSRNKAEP
Kind of assay: calcium imaging. It counts as cell-based. The note with it: agonist; dose-response in figure.

With `CCN(CC)CCCC(C)Nc1ccnc2cc(Cl)ccc12` (centres unmarked) [chloroquine], the “response of electroporated Mrgpr-deficient mouse DRG neurons” value on rat MrgprA is recorded as “Expression of rat MrgprA in Mrgpr-clusterΔ^−/− DRG neurons conferred CQ sensitivity upon them”. On to `C=C[C@H]1CN2CC[C@H]1C[C@H]2[C@H](O)c1ccnc2ccc(OC)cc12` [quinine], for which, on MrgprA3, the “calcium imaging (fura-2) in transfected HEK293 cells” value is recorded as “Unlike CQ, quinine weakly activates MrgprA3”.
